From ChEMBL document CHEMBL5053549, “Discovery of Potent and Novel Dual PARP/BRD4 Inhibitors for Efficient Treatment of Pancreatic Cancer” (J Med Chem, 2021)
Calls of active or inactive are those of the source. No cut-off for these calls is given here.

Legend:
Mus musculus [1] = experiment: Toxicity in BALB/c mouse xenografted with human SW1990 cells assessed as lung damage at 15 mg/kg, ip administered for 28 consecutive days in presence of 45 mg/kg Olaparib; type: organism-based; settings: in vivo, 672 h, time 28 day
SW1990 [2] = experiment: Induction of DNA damage in human SW1990 cells assessed as tail DNA at 1 uM incubated for 4 days in presence of 3 uM Olaparib by comet assay; type: functional, cell-based; settings: time 4.0 day
SW1990 [3] = experiment: Inhibition of homologous recombinant repair in human SW1990 cells assessed as reduction in c-Myc expression at 4 uM after 4 days by Western blot analysis; type: functional, cell-based; settings: time 4.0 day
SW1990 [4] = experiment: Induction of DNA damage in human SW1990 cells assessed as increase in gammaH2AX at 4 uM incubated for 4 days by immunofluorescence assay; type: functional, cell-based; settings: time 4.0 day
Mus musculus [5] = experiment: Toxicity in BALB/c mouse xenografted with human SW1990 cells assessed as spleen damage at 15 mg/kg, ip administered for 28 consecutive days by H and E staining based […] microscopic analysis; type: organism-based; settings: in vivo, 672 h, time 28 day
SW1990 [6] = experiment: Inhibition of homologous recombinant repair in human SW1990 cells assessed as reduction in Olaparib-induced Rad51 expression at 1 uM after 4 days in presence of Olaparib by Western blot analysis; type: functional, cell-based; settings: time 4.0 day
SW1990 [7] = experiment: Effect on cell cycle progression in human SW1990 cells assessed as reduction in Olaparib-induced PLK1 expression at 1 uM after 4 days in presence of Olaparib by Western blot analysis; type: functional, cell-based; settings: time 4.0 day
SW1990 [8] = experiment: Inhibition of homologous recombinant repair in human SW1990 cells assessed as reduction in BRCA1 expression at 4 uM after 4 days by Western blot analysis; type: functional, cell-based; settings: time 4.0 day
SW1990 [9] = experiment: Induction of cell cycle arrest in human SW1990 cells assessed as accumulation of cells at G2/M phase at 4 uM incubated for 4 days by propidium iodide staining based flow cytometry (reference value: 5.89%); type: functional; settings: time 4 day
Mus musculus [10] = experiment: In vivo inhibition of BRD4 expression in human SW1900 cells xenografted in BALB/c mouse assessed as reversal of Olaparib-induced BRD4 accumulation at 15 mg/kg, ip administered for 28 consecutive days in presence of 45 mg/kg Olaparib by immunohistochemical analysis; type: functional, organism-based; settings: time 28.0 day
SW1990 [11] = experiment: Inhibition of homologous recombinant repair in human SW1990 cells assessed as reduction in Olaparib-induced Rad51 expression at 1 uM after 4 days in presence of Olaparib by Q-PCR analysis; type: functional, cell-based; settings: time 4.0 day
SW1990 [12] = experiment: Induction of apoptosis in human SW1990 cells assessed as early apoptotic cells at 1 uM after 4 days by Annexin V-FITC and propidium iodide staining based flow cytometry (reference value: […]%); type: functional; settings: time 4 day
SW1990 [13] = experiment: Induction of autophagy in human SW1990 cells assessed as reduction in Bcl-2 expression at 1 to 2 uM incubated for 4 days by immunofluorescence assay; type: functional, cell-based; settings: dose 1-2 µM, time 4.0 day
Mus musculus [14] = experiment: Effect on cell cycle progression in human SW1990 cells xenografted in BALB/c mouse assessed as reduction in PLK1 expression at 45 mg/kg, ip after 4 days by Q-PCR analysis; type: functional, organism-based; settings: time 4.0 day
SW1990 [15] = experiment: Antitumor activity against human SW1990 cells xenografted in BALB/c mouse assessed as inhibition of Ki67 expression at 45 mg/kg, ip administered for 28 consecutive days by immunohistochemical analysis; type: functional, organism-based; settings: time 28.0 day
[16] = molecular target: Poly [ADP-ribose] polymerase 1 (Homo sapiens, UniProt P09874); experiment: Inhibition of PARP1 expression in human SW1990 cells at 1 uM after 4 days by Q-PCR analysis; type: cell-based; settings: time 4.0 day
Poly [ADP-ribose] polymerase 1, sequence (P09874 whole entry): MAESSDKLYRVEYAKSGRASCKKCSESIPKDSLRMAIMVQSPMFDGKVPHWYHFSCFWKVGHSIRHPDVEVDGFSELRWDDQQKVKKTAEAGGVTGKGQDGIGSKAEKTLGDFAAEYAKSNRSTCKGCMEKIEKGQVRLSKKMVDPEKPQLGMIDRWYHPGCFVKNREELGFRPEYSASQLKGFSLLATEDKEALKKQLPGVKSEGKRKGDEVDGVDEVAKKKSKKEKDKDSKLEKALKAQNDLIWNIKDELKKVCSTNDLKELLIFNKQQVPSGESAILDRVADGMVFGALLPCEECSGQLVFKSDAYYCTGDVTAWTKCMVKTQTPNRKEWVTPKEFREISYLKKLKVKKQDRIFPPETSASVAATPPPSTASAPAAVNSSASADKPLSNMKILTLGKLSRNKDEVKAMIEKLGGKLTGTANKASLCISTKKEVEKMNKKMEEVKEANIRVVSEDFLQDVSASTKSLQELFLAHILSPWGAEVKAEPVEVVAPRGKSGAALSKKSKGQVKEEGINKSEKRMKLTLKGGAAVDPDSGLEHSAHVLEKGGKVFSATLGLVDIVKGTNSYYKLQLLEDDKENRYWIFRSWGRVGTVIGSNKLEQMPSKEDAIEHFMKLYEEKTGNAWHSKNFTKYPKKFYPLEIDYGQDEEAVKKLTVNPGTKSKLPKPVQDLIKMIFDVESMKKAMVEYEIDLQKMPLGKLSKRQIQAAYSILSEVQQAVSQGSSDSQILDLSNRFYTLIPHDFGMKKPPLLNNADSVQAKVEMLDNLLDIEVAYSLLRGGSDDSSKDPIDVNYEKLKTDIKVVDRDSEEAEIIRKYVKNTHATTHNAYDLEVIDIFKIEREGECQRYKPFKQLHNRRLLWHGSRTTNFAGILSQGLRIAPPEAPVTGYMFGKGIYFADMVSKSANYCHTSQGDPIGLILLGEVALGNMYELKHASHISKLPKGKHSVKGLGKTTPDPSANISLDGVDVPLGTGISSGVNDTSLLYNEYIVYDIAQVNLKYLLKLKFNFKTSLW

SW1990 [17] = experiment: Effect on cell cycle progression in human SW1990 cells assessed as reduction in CCND1 expression at 1 to 2 uM after 4 days by Q-PCR analysis; type: functional, cell-based; settings: dose 1-2 µM, time 4.0 day
[18] = molecular target: Bromodomain-containing protein 2 (Homo sapiens, UniProt P25440); experiment: Inhibition of recombinant BRD2 BD1 (unknown origin) incubated for 120 mins by TR-FRET assay
Bromodomain-containing protein 2, sequence (P25440 whole entry): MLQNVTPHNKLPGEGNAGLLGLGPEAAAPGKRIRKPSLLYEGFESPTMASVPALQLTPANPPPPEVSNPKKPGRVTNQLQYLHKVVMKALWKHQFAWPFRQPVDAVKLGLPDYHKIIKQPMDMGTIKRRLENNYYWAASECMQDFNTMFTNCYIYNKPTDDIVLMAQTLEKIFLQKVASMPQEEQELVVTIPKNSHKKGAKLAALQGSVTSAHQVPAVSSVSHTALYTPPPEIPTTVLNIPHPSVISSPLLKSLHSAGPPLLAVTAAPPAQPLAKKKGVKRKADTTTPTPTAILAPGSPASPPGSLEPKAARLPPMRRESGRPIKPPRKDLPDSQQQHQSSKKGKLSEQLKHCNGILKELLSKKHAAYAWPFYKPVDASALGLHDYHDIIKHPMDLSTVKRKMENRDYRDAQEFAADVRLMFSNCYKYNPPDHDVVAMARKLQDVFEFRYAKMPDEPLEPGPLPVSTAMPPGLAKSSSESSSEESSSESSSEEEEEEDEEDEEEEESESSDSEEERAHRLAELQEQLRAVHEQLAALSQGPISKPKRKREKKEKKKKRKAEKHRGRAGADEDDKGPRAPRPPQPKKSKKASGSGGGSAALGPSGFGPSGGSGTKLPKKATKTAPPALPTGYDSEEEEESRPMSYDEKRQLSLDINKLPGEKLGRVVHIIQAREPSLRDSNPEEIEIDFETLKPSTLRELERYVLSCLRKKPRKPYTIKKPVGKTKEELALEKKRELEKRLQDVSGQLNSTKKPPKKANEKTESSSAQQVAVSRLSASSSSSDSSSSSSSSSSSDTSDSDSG

SW1990 [19] = experiment: Inhibition of homologous recombinant repair in human SW1990 cells assessed as reduction in Rad51 expression at 1 to 2 uM after 4 days by Western blot analysis; type: functional, cell-based; settings: dose 1-2 µM, time 4.0 day
[20] = molecular target: T1, Bromodomain-containing protein 1 (Homo sapiens, UniProt O95696); experiment: Inhibition of recombinant BRD1 (unknown origin) incubated for 120 mins by TR-FRET assay
T1 sequence (O95696 whole entry): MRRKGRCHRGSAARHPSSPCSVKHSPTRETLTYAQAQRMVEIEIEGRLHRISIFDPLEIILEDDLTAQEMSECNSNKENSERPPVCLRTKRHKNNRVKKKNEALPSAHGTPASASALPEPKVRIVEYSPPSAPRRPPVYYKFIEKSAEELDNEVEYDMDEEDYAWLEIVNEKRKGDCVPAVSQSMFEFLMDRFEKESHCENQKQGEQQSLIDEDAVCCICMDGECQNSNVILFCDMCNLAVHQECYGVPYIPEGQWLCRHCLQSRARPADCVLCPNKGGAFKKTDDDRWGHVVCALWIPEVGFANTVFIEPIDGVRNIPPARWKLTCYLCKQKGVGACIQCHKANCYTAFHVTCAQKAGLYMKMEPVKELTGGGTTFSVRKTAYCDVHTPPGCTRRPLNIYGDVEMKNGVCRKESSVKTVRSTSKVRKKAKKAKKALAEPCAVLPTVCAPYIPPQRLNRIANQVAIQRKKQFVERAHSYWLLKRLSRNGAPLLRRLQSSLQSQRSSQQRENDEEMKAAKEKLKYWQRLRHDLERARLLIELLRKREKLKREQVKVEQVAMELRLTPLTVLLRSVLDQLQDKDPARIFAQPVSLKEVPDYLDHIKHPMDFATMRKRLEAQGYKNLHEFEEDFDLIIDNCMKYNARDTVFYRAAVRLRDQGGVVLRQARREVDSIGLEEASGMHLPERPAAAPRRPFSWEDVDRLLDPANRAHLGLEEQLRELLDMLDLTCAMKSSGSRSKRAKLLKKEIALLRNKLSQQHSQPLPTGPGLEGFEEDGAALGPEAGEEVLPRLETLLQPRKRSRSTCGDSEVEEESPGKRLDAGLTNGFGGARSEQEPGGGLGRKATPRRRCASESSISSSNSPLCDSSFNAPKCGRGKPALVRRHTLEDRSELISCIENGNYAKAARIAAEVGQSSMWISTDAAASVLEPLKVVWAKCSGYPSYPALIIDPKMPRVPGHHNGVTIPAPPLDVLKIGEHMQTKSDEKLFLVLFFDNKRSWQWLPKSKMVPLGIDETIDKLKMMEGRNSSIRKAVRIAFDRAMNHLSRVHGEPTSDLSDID

Mus musculus [21] = experiment: Effect on cell cycle progression in human SW1990 cells xenografted in BALB/c mouse assessed as reduction in E2F2 expression at 45 mg/kg, ip after 4 days by Q-PCR analysis; type: functional, organism-based; settings: time 4.0 day
[22] = molecular target: Bromodomain-containing protein 4 (Homo sapiens, UniProt O60885); experiment: Inhibition of recombinant BRD4 BD2 (unknown origin) incubated for 120 mins by TR-FRET assay
SW1990 [23] = experiment: Effect on cell cycle progression in human SW1990 cells assessed as reduction in E2F2 expression at 1 to 2 uM after 4 days by Q-PCR analysis; type: functional, cell-based; settings: dose 1-2 µM, time 4.0 day

Cc1sc2c(c1C)C(c1ccc(Cl)cc1)=N[C@@H](CC(=O)OC(C)(C)C)c1nnc(C)n1-2
Activity (Mus musculus [1]): Non-Toxic
Activity (SW1990 [2]): Active
inhibition (SW1990 [3]): Active
Activity (SW1990 [4]): Active
Activity (Mus musculus [5]): Non-Toxic
inhibition (SW1990 [6]): Active
Activity (SW1990 [7]): Active
inhibition (SW1990 [8]): Active
Activity (SW1990 [9]): 5.51%
Activity (Mus musculus [10]): Active
inhibition (SW1990 [11]): Active

CC[C@@H]1C(=O)N(C)c2cnc(N(C)c3ccc(-c4nc5c(C(N)=O)cccc5[nH]4)cc3OC)nc2N1C1CCCC1
Activity (SW1990 [12]): 1.71%
Activity (SW1990 [13]): Active
Activity (Mus musculus [14]): Active
Activity (SW1990 [15]): Active
inhibition [16]: Active
Activity (SW1990 [17]): Active
IC50 [18]: 381 nM
inhibition (SW1990 [19]): Active
IC50 [20]: 36500 nM
Activity (Mus musculus [21]): Active
IC50 [22]: 157 nM
Activity (SW1990 [23]): Active
